Like-named read-outs stand apart in the source and are kept apart here.
How the values were obtained:
[1] = tested on: MM1.S (multiple myeloma) cells; assay: In vitro cell proliferation, MM1.S multiple myeloma cells (CellTiter-Glo, ATP); type: cell-based; conditions: read-out: Prolif MM1S ATP (EC50)
Method: BaF3, a murine interleukin-3 dependent pro-B cell line, parental cells, BaF3 PIM1 cells, BaF3 PIM2 cells, and MM1.S (multiple myeloma) cells were seeded at 2 k/well, 5 k/well, 5 k/well, and 10 k/well respectively, in a 384-well plate, at 45 μL/well. Test compound was added at 5 μL/well. BaF3 cells (parental and transfected) were incubated overnight, while MM1.S cells were incubated for 72 hours at 37° C., 5% CO2. […] IC50/EC50 values for the test compound were calculated.

[2] = tested on: BaF3 parental cells; assay: In vitro cell proliferation, BaF3 parental line + IL3 (CellTiter-Glo); type: cell-based, murine
Method: BaF3 parental line was obtained from the DSMZ repository. BaF3 lines transfected with PIM 1 or PIM2 were generated. Mouse IL-3 was purchased from R&D Systems. G418 was purchased from Clontech. Media for BaF3 parental line contained RPMI, 10% FBS, 2 mM L-Glutamine, 2 ng/mL mIL-3. Media for BaF3 PIM1 & 2 lines contained RPMI, 10% FBS, 2 mM L-Glutamine, 250 μg/mL.
BaF3, a murine interleukin-3 dependent pro-B cell line, parental cells, BaF3 PIM1 cells, BaF3 PIM2 cells, and MM1.S (multiple myeloma) cells were seeded at 2 k/well, 5 k/well, 5 k/well, and 10 k/well respectively, in a 384-well plate, at 45 μL/well. Test compound was added at 5 μL/well. BaF3 cells (parental and transfected) were incubated overnight, while MM1.S cells were incubated for 72 hours at 37° C., 5% CO2. CELL TITER GLO® Reagent (Promega) was added at 50 μL/well, the plates were incubated for 30 minutes, and their luminescence read on an HT Analyst. IC50/EC50 values for the test compound were calculated.

[3] = Mus musculus, BaF3, BaF3 parental cells with IL-3, incubated overnight, read-out: Prolif BaF3 IL3 (IC50)
[4] = Mus musculus, BaF3, BaF3 parental cells with IL-3, incubated overnight, read-out: Prolif BaF3 + IL3 (IC50)
[5] = BaF3 parental cells with IL-3, incubated overnight, read-out: Prolif BaF3 + IL3 (IC50)

Row | Compound | EC50 ([1]; Homo sapiens, MM1.S, 72 h) | EC50 ([1]; 72 hours) | IC50 [2, 3] | IC50 [2, 4] | IC50 [2, 5]
1 | Cn1ncc(NC(=O)c2nc(-c3ccccc3F)sc2N)c1N1CC[C@@H](N)[C@H](F)CC1 (single isomer, unassigned) [Example 230] | 1.3 µM |  | 18.1 µM |  | 
2 | Cn1ncc(NC(=O)c2nc(-c3c(F)cccc3F)sc2N)c1N1CCC(N)C(O)CC1 (single isomer, unassigned) [Example 327, 5-amino-N-[5-(4-amino-5-hydroxy-azepan-1-yl)-1-methyl-pyrazol-4-yl]-2-(2,6-difluorophenyl)thiazole-4-carboxamide] |  | 14.7 µM |  | > 25 µM | 
3 | Cn1ncc(NC(=O)c2nc(-c3c(F)cccc3F)sc2N)c1N1CCC(N)C(O)CC1 (single isomer, unassigned) [Example 328, 5-amino-N-[5-(4-amino-5-hydroxy-azepan-1-yl)-1-methyl-pyrazol-4-yl]-2-(2,6-difluorophenyl)thiazole-4-carboxamide] |  | 11.5 µM |  |  | > 25 µM
4 | Cn1ncc(NC(=O)c2nc(-c3c(F)cccc3F)sc2N)c1N1CCC(N)C(O)CC1 (single isomer, unassigned) [Example 337, 5-amino-N-[5-(4-amino-5-hydroxy-azepan-1-yl)-1-methyl-pyrazol-4-yl]-2-(2,6-difluorophenyl)thiazole-4-carboxamide] |  | 0.0308 µM |  |  | 25 µM
5 | CO[C@H]1CCC(c2c(NC(=O)c3nc(-c4ccccc4F)sc3N)cnn2C)CC[C@@H]1N (single isomer, unassigned) [Example 414] | 0.0699 µM |  |  | > 25 µM | 
6 | Cn1ncc(NC(=O)c2nc(-c3c(F)cccc3F)sc2N)c1N1CCC(N)CC2(CCO2)C1 (single isomer, unassigned) [Example 448, 5-amino-N-[5-(6-amino-1-oxa-9-azaspiro[3.6]decan-9-yl)-1-methyl-pyrazol-4-yl]-2-(2,6-difluorophenyl)thiazole-4-carboxamide] |  | 1.4 µM |  | > 25 µM | 
7 | Cn1ncc(NC(=O)c2nc(-c3c(F)cccc3F)sc2N)c1N1CCC(N)CC2(CCO2)C1 (single isomer, unassigned) [Example 452, 5-amino-N-[5-(6-amino-1-oxa-9-azaspiro[3.6]decan-9-yl)-1-methyl-pyrazol-4-yl]-2-(2,6-difluorophenyl)thiazole-4-carboxamide] |  | 0.0793 µM |  |  | 24.7 µM
8 | Cn1ncc(NC(=O)c2nc(-c3c(F)cccc3F)sc2N)c1C1CCC(N)CC(C)(O)C1 (single isomer, unassigned) [Example 468, 5-amino-N-[5-(5-amino-3-hydroxy-3-methyl-cycloheptyl)-1-methyl-pyrazol-4-yl]-2-(2,6-difluorophenyl)thiazole-4-carboxamide] |  | 0.824 µM |  |  | > 25 µM
9 | Cn1ncc(NC(=O)c2nc(-c3c(F)cccc3F)sc2N)c1N1CCNC[C@]2(CCO2)C1 (single isomer, unassigned) [Example 483] | > 25 µM |  |  | > 25 µM | 
10 | COC1(C)CCN(c2c(NC(=O)c3nc(-c4c(F)cccc4F)sc3N)cnn2C)CCC1N (single isomer, unassigned) [Example 502, 5-amino-N-[5-(5-amino-4-methoxy-4-methyl-azepan-1-yl)-1-methyl-pyrazol-4-yl]-2-(2,6-difluorophenyl)thiazole-4-carboxamide] |  | 2.2 µM |  | 11.9 µM | 
11 | COC1(C)CCN(c2c(NC(=O)c3nc(-c4c(F)cccc4F)sc3N)cnn2C)CCC1N (single isomer, unassigned) [Example 503, 5-amino-N-[5-(5-amino-4-methoxy-4-methyl-azepan-1-yl)-1-methyl-pyrazol-4-yl]-2-(2,6-difluorophenyl)thiazole-4-carboxamide] |  | 0.108 µM |  |  | 11 µM
12 | Cn1ncc(NC(=O)c2nc(-c3c(F)cccc3F)sc2N)c1N1CCC(N)C(C(F)F)CC1 (single isomer, unassigned) [Example 512, 5-amino-N-[5-[4-amino-5-(difluoromethyl)azepan-1-yl]-1-methyl-pyrazol-4-yl]-2-(2,6-difluorophenyl)thiazole-4-carboxamide] | 2 µM |  |  |  | 24.6 µM
13 | CNCC1CCN(c2c(NC(=O)c3nc(-c4c(F)cccc4F)sc3N)cnn2C)CC1 [Example 101, 5-Amino-2-(2,6-difluorophenyl)-N-(1-methyl-5-(4-((methylamino)methyl)piperidin-1-yl)-1H-pyrazol-4-yl)thiazole-4-carboxamide] | 17.9 µM |  | 19.5 µM |  | 
14 | CC[C@H]1CNCCN1c1c(NC(=O)c2nc(-c3c(F)cccc3F)sc2N)cnn1C [Example 113, (S)-5-Amino-2-(2,6-difluorophenyl)-N-(5-(2-ethylpiperazin-1-yl)-1-methyl-1H-pyrazol-4-yl)thiazole-4-carboxamide] | 19 µM |  | > 25 µM |  | 
15 | Cn1ncc(NC(=O)c2nc(-c3c(F)cccc3F)sc2N)c1N1CC[C@@H](N)C[C@@H](F)C1 [Example 126, 5-amino-N-(5-((3R,5R)-5-amino-3-fluoroazepan-1-yl)-1-methyl-1H-pyrazol-4-yl)-2-(2,6-difluorophenyl)thiazole-4-carboxamide] | 0.11 µM |  | > 25 µM |  | 
16 | COC1CCN(c2c(NC(=O)c3nc(-c4c(F)cccc4F)sc3N)cnn2C)CCC1N (centres unmarked) [Example 314, 5-amino-N-[5-(4-amino-5-methoxy-azepan-1-yl)-1-methyl-pyrazol-4-yl]-2-(2,6-difluorophenyl)thiazole-4-carboxamide] |  | 9 µM |  | 13.9 µM | 
17 | COC1CC(N)CCN(c2c(NC(=O)c3nc(-c4c(F)cccc4F)sc3N)cnn2C)C1 (centres unmarked) [Example 316, 5-amino-N-[5-(5-amino-3-methoxy-azepan-1-yl)-1-methyl-pyrazol-4-yl]-2-(2,6-difluorophenyl)thiazole-4-carboxamide] |  | 0.163 µM |  |  | > 25 µM
18 | COC1CC(N)CCN(c2c(NC(=O)c3nc(-c4c(F)cccc4F)sc3N)cnn2C)C1 (centres unmarked) [Example 320, 5-amino-N-[5-(5-amino-3-methoxy-azepan-1-yl)-1-methyl-pyrazol-4-yl]-2-(2,6-difluorophenyl)thiazole-4-carboxamide] |  | 0.118 µM |  | 25 µM | 

Second part, led by results:

Row | EC50 ([1]; Homo sapiens, MM1.S, 72 h) | EC50 ([1]; 72 hours) | Compound | IC50 [2, 3] | IC50 [2, 4] | IC50 [2, 5]
19 | 3 µM |  | Cn1ncc(NC(=O)c2nc(-c3c(F)cccc3F)sc2N)c1N1CCC[C@H](N)[C@@H](F)C1 (single isomer, unassigned) [Example 158] | 11.6 µM |  | 
20 |  | 0.00869 µM | COC1(C)CC(N)CCN(c2c(NC(=O)c3nc(-c4c(F)cccc4F)sc3N)cnn2C)C1 (single isomer, unassigned) [Example 352, 5-amino-N-[5-(5-amino-3-methoxy-3-methyl-azepan-1-yl)-1-methyl-pyrazol-4-yl]-2-(2,6-difluorophenyl)thiazole-4-carboxamide] |  |  | 10.4 µM
21 |  | 0.139 µM | COC1(C)CC(N)CCN(c2c(NC(=O)c3nc(-c4c(F)cccc4F)sc3N)cnn2C)C1 (single isomer, unassigned) [Example 353, 5-amino-N-[5-(5-amino-3-methoxy-3-methyl-azepan-1-yl)-1-methyl-pyrazol-4-yl]-2-(2,6-difluorophenyl)thiazole-4-carboxamide] |  |  | 25 µM
22 | 4.9 µM |  | Cn1ncc(NC(=O)c2nc(-c3c(F)cccc3F)sc2N)c1N1CCCC(C)(N)CC1 (single isomer, unassigned) [Example 436, 5-amino-N-[5-(4-amino-4-methyl-azepan-1-yl)-1-methyl-pyrazol-4-yl]-2-(2,6-difluorophenyl)thiazole-4-carboxamide] |  | 8.3 µM | 
23 |  | > 25 µM | Cn1ncc(NC(=O)c2nc(-c3c(F)cccc3F)sc2N)c1C1CCC(N)CC(C)(O)C1 (single isomer, unassigned) [Example 456, 5-amino-N-[5-(5-amino-3-hydroxy-3-methyl-cycloheptyl)-1-methyl-pyrazol-4-yl]-2-(2,6-difluorophenyl)thiazole-4-carboxamide] |  | > 25 µM | 
24 |  | 4.8 µM | Cn1ncc(NC(=O)c2nc(-c3c(F)cccc3F)sc2N)c1C1CCC(N)CC(C)(O)C1 (single isomer, unassigned) [Example 467, 5-amino-N-[5-(5-amino-3-hydroxy-3-methyl-cycloheptyl)-1-methyl-pyrazol-4-yl]-2-(2,6-difluorophenyl)thiazole-4-carboxamide] |  |  | > 25 µM
25 | 0.0651 µM |  | Cn1ncc(NC(=O)c2nc(-c3c(F)cccc3F)sc2N)c1N1CC[C@H](N)C[C@@H](F)C1 (stereo in doubt) [Example 154, 5-amino-N-(5-(5-amino-3-fluoroazepan-1-yl)-1-methyl-1H-pyrazol-4-yl)-2-(2,6-difluorophenyl)thiazole-4-carboxamide] | 24.5 µM |  | 
26 | 1.4 µM |  | Cn1ncc(NC(=O)c2nc(-c3c(F)cccc3F)sc2N)c1N1CCC2(CCNC2)CC1 [Example 124, 5-Amino-2-(2,6-difluorophenyl)-N-(1-methyl-5-(2,8-diazaspiro[4.5]decan-8-yl)-1H-pyrazol-4-yl)thiazole-4-carboxamide] | 22.1 µM |  | 
27 | 6.4 µM |  | Cn1ncc(NC(=O)c2nc(-c3c(F)cccc3F)sc2N)c1N1CCNCC2(CC2)C1 [Example 313, 5-amino-N-[5-(5,8-diazaspiro[2.6]nonan-8-yl)-1-methyl-pyrazol-4-yl]-2-(2,6-difluorophenyl)thiazole-4-carboxamide] |  | 17 µM | 
28 |  | 0.663 µM | COC1CC(N)CCN(c2c(NC(=O)c3nc(-c4c(F)cccc4F)sc3N)cnn2C)C1 (centres unmarked) [Example 317, 5-amino-N-[5-(5-amino-3-methoxy-azepan-1-yl)-1-methyl-pyrazol-4-yl]-2-(2,6-difluorophenyl)thiazole-4-carboxamide] |  |  | > 25 µM
